Key:
HIV-1IIIB [1] = assay: Co-cultivation assay (C8166 cells with H9 cells chronically infected with HIV-1IIIB); assay type: cell-based; conditions: highest concentration treated; C8166 + H9/HIV-1IIIB, 72 h
Procedure: 3×10^4 C8166 cells were pre-treated with various concentrations of 6,6′-bieckol for 2 h and co-cultured with 3×10^3 H9 cells chronically infected with HIV-1IIIB at 37° C. in a humidified atmosphere of 5% CO2. After 72 h of incubation, the number of syncytia formed was counted using a microscope.

HIV-1IIIB [2] = assay: Western blot analysis of p24 / gag proteins in HIV-1IIIB infected H9 cells; assay type: cell-based
Procedure: 1×10^6 cells/ml H9 cells were cultured in cell culture plates. Following sample treatment, plates were incubated for 2 h and infected with HIV-1IIIB at 200 CCID50. After 96 h of incubation at 37° C., cells were pelleted at 1000 rpm for 10 min and supernatant was harvested. The cells were washed 3 times with PBS and lysed with 500 μl of lysis buffer containing 50 mM Tris-HCl (pH 7.5), 0.4% Nonidet P-40, 120 mM NaCl, 1.5 mM MgCl2, 2 mM phenylmethylsulfonyl fluoride, 80 μg/ml leupeptin, 3 mM NaF, and 1 mM DTT. Hundred micrograms of total protein was used for immunoblot analysis.
Culture supernatant containing virus was filtered through 0.22 μm filter, mixed with 30% polyethylene glycol (PEG) (50% v/v) with 0.4 M NaCl, and virus particles were pelleted at 15000 rpm for 45 min. The viral pellets were lysed, resuspended in SDS sample buffer and equal volume of viral lysates (20 μl) was loaded onto SDS gel. The proteins were subjected to denaturating SDSAGE in 25 mM Tris, 192 mM glycine, 0.1% SDS with a 4% stacking, and 10% separating gel. Separated proteins were transferred onto a nitrocellulose membrane, blocked in Tris buffered saline containing 0.1% (v/v) Tween 20 (TBS-T) and 5% skim milk powder. The membrane was probed with mouse anti-p24 monoclonal antibody (1:500, SantaCruz) and horseradish peroxidase (HRP)-conjugated anti-mouse IgG secondary antibody (1:5000, SantaCruz). […]

CEM-SS or H9 cells = assay: Cell viability (MTT) assay; assay type: cell-based, human; conditions: up to 500 μM, 72 h
Procedure: H9 and H9/HIV-1IIIB cell lines were obtained through American Type of Culture Collection (Manassas, Va., USA). CEM-SS cell line from Dr. P. Nara and C8166 cell line from Dr. G. Farrar were provided by the EU Programme EVA Centre for AIDS Reagents, NIBSC, UK. CEM-SS, C8166, H9 and H9/HIV-1IIIB cell lines were grown in RPMI 1640 medium supplemented with 10% FBS, 100 μg of streptomycin per ml and 100 U of penicillin per ml. HIV-1IIIB virus stock was obtained from the culture supernatant of chronically infected H9/HIV-1IIIB cells. Cell-free virus was harvested from the supernatants by centrifugation and filtration through 0.22 μM filter. The virus stocks were stored as small aliquots at […] until use.
The cytotoxic concentrations of 6,6′-bieckol were determined by MTT assay, a method based on the reduction of 3-(4,5-dimethylthiazol-2-yl)-2,5-diphenyltetrazolium bromide (MTT). Four hundreds of microliters of medium containing CEM-SS or H9 cells were cultured into a 48-well plate at a density of 10^5 cells/ml. The plate was incubated overnight and treated with 100 μl of RPMI 1640 medium with/without 6,6′-bieckol. After 72 h of incubation, 100 μl of 500 μg/ml MTT was added to each well and the plate was incubated for another 4 h at 37° C. […] Optical density was measured at 540 nm with a microplate reader. […]

HIV-1IIIB [3] = assay: HIV-1 p24 antigen capture ELISA in H9 cells; assay type: cell-based; set-up: dose or concentration left out as unconfirmed; conditions: ELISA (FIG. 1D)
Procedure: H9 cells (3×10^6 cells/ml) were incubated in the presence or absence of HIV-1IIIB for 1 h at 37° C. Cells were washed to remove unbound viruses and resuspended at 3×10^5 cells/ml in culture medium. Aliquots of 1 ml were placed in a 24-well culture plate containing an equal volume of medium with/without 6,6′-bieckol.
AZT was treated as positive control. In order to determine the amount of virus released to the medium, HIV-1 p24 antigen capture ELISA was carried out with a commercial kit (Perkin-Elmer Life Sciences, Boston, Mass.) according to the manufacturer's instructions.

[4] = target: T1, HIV-1 reverse transcriptase (Human immunodeficiency virus type 1 group M subtype B, UniProt P04585); assay: Reverse transcriptase activity assay (fluorescence RT kit, viral lysate); assay type: biochemical; set-up: HIV-1 RT enzyme activity inhibited: dose or concentration left out as unconfirmed; conditions: RT from cell culture supernatant
T1 construct: HIV-1 reverse transcriptase in the viral lysate; endogenous in cells; host or cells: lysate of virus particles produced by infected cell culture (viral lysate)
Procedure: The activity of HIV-1 reverse transcriptase in the viral lysate was evaluated using a fluorescence RT assay kit (InvitroGen) according to the manufacturer's protocol. Briefly, 20 μl of reaction mixture containing a template/primer hybrid, poly(A)/d(T)16, and dTTP as a triphosphate substrate was added to the wells of amicrotiter plate and mixed with 5 μl of viral lysate containing various concentrations of 6,6′-bieckol. After incubation at 37° C. for 1 h, the reaction was stopped by the addition of 2 μl of 200 mM EDTA to each reaction. Fluorescence intensity was measured at 480 nm (excitation) and 520 nm (emission) with a GENiosmicroplate reader (Tecan Austria GmbH, Austria) after the addition of 173 μl of fluorescent PicoGreenreagent, which selectively binds to dsDNA or DNA-RNA heteroduplexes over single-stranded nucleic acids or free nucleotides.

SMILES: Oc1cc(O)cc(Oc2c(O)cc(O)c3c2Oc2c(O)cc(O)c(-c4c(O)cc(O)c5c4Oc4c(O)cc(O)c(Oc6cc(O)cc(O)c6)c4O5)c2O3)c1 [6,6′-bieckol]
- inhibition of syncytia formation in co-cultivation assay (HIV-1IIIB [1]): around 80%
- protease inhibition judged from p55 gag related protein bands (HIV-1IIIB [2]; Western blot): did not inhibit the protease
- inhibition of p24 antigen production versus AZT (HIV-1IIIB [2]; of 6,6′-bieckol vs AZT 5 μM (FIG. 2C)): comparable to that of AZT
- cytotoxicity (CEM-SS or H9 cells): no cytotoxicity
- inhibition of production of p24 antigen (HIV-1IIIB [3]): more than 90%
- inhibition at 1 µM ([4]; 1 μM, read-out: HIV-1 RT enzyme inhibition): 50.5%
- HIV-1 RT enzyme activity inhibited [4]: 96.33%

Source: US20110288314A1, “PHLOROGLUCINOL DERIVATIVES FROM ECKLONIA CAVA HAVING ANTI-HIV-1 INHIBITORY ACTIVITY” (priority 2008, published 2011)
